Test results reported in patent publication US20240327393A1 (SIRONAX LTD., priority 2021, published 2024).

These compounds were tested on HT-1080 (ATCC, CCL-121) cells (assay: HT-1080 cell viability assay with ferroptosis inducer RSL3 (Cell Titer-Glo)). Conditions: Homo sapiens; HT-1080 cells treated with RSL3; 3-fold, 10-point dilution, 1.1 μM highest concentration; Table 2; read-out: EC50 (nM), ferroptosis inhibitory activity.
Format: cell-based
In short: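 HT-1080 cells (6000 per well) were cultured overnight at 37 °C, then co-treated with RSL3 and compound in a 3-fold, 10-point series topping at 1.1 μM. Viability was read by CellTiter-Glo luminescence and normalized to untreated controls. EC50 came from a sigmoidal non-linear regression fit.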

Compound | EC50 [nM]
CN1Cc2cc(Nc3ccc(N(C)C)nc3)ccc2C1=O [Compound 235, 5-((6-(dimethylamino)pyridin-3-yl)amino)-2-methylisoindolin-1-one] | 0.1 to 100
O=C(C1CC1)N1Cc2ccc(Nc3ccc(N4CCC(C(F)(F)F)CC4)cc3)cc2C1 [Compound 190, cyclopropyl(5-((4-(4-(trifluoromethyl)piperidin-1-yl)phenyl)amino)isoindolin-2-yl)methanone] | 0.1 to 100
CCn1[nH]c2cc(Nc3ccc(N4CCC(C(F)(F)F)CC4)cc3)ccc2c1=O [Compound 252, 2-ethyl-6-((4-(4-(trifluoromethyl)piperidin-1-yl)phenyl)amino)-1,2-dihydro-3H-indazol-3-one] | 0.1 to 100
Cc1nc2ccc(Nc3ccc(N4CCC(C(F)(F)F)CC4)cc3)cc2o1 [Compound 323, 2-methyl-N-(4-(4-(trifluoromethyl)piperidin-1-yl)phenyl)benzo[d]oxazol-6-amine] | 0.1 to 100
CC1CCN(c2ccc(Nc3ccc4c(c3)N(C)CC4(C)C)cc2)CC1 [Compound 338, 1,3,3-trimethyl-N-(4-(4-methylpiperidin-1-yl)phenyl)indolin-6-amine] | 0.1 to 100
CC1CN(c2ccc3cc(Nc4ccc5c(c4)OCC(=O)N5C)ccc3n2)CC(C)O1 (stereo not shown) [Compound 65, 7-((2-(2,6-dimethylmorpholino)quinolin-6-yl)amino)-4-methyl-2H-benzo[b][1,4]oxazin-3(4H)-one] | 0.1 to 100
COCCn1c(=O)n(C)c2cc(Nc3ccc(N4CCC(C(F)(F)F)CC4)cc3)ccc21 [Compound 354, 1-(2-methoxyethyl)-3-methyl-5-((4-(4-(trifluoromethyl)piperidin-1-yl)phenyl)amino)-1,3-dihydro-2H-benzo[d]imidazol-2-one] | 0.1 to 100
COCCOc1ccc(Nc2ccc3c(c2)CN(C)C3=O)cc1 [Compound 237, 5-((4-(2-methoxyethoxy)phenyl)amino)-2-methylisoindolin-1-one] | 0.1 to 100
Cc1cc2c(cc1Nc1ccc(N3CCC(C(F)(F)F)CC3)cc1)OCC(=O)N2C [Compound 157] | 0.1 to 100
Cc1cc(Nc2ccc3c(c2)OCC(=O)N3C)cnc1N1CC(C)OC(C)C1 (stereo not shown) [Compound 143, 7-((6-(2,6-dimethylmorpholino)-5-methylpyridin-3-yl)amino)-4-methyl-2H-benzo[b][1,4]oxazin-3(4H)-one] | 0.1 to 100
CCC1Oc2cc(Nc3ccc(N4CC(C)OC(C)C4)cc3)ccc2N(C)C1=O (stereo not shown) [Compound 81, 7-((4-(2,6-dimethylmorpholino)phenyl)amino)-2-ethyl-4-methyl-2H-benzo[b][1,4]oxazin-3(4H)-one] | 0.1 to 100
CN1CCC(N2Cc3cc(Nc4ccc(N5CCC(C)(C)CC5)cc4)ccc3C2=O)CC1 [Compound 247, 5-((4-(4,4-dimethylpiperidin-1-yl)phenyl)amino)-2-(1-methylpiperidin-4-yl)isoindolin-1-one] | 0.1 to 100
CC(=O)N1Cc2ccc(Nc3ccc(N4CCC(C(F)(F)F)CC4)cc3)cc2C1 [Compound 186, 1-(5-((4-(4-(trifluoromethyl)piperidin-1-yl)phenyl)amino)isoindolin-2-yl) ethan-1-one] | 0.1 to 100
CCN1C(=O)COc2cc(Nc3ccc(N4CCC(C(F)(F)F)CC4)cc3)ccc21 [Compound 16, 4-ethyl-7-((4-(4-(trifluoromethyl)piperidin-1-yl)phenyl)amino)-2H-benzo[b][1,4]oxazin-3(4H)-one] | 0.1 to 100
CN1C(=O)COc2cc(Nc3cnc(N4CCC(C(F)(F)F)CC4)nc3)ccc21 [Compound 58, 4-methyl-7-((2-(4-(trifluoromethyl)piperidin-1-yl)pyrimidin-5-yl)amino)-2H-benzo[b][1,4]oxazin-3(4H)-one] | 0.1 to 100
CN1C(=O)C(C)(C)c2cc(Nc3ccc(N4CCC(C(F)(F)F)CC4)cc3)ccc21 [Compound 293, 1,3,3-trimethyl-5-((4-(4-(trifluoromethyl)piperidin-1-yl)phenyl)amino)indolin-2-one] | 0.1 to 100
Cc1cc(Nc2ccc3c(c2)OCC(=O)N3)ccc1N1CC2CCC(C1)O2 [Compound 146, 7-((4-(8-oxa-3-azabicyclo[3.2.1]octan-3-yl)-3-methylphenyl)amino)-2H-benzo[b][1,4]oxazin-3(4H)-one] | 0.1 to 100
COC1(C(F)(F)F)CCN(c2ccc(Nc3ccc4c(c3)OCC(=O)N4)cc2)CC1 [Compound 162, 7-((4-(4-methoxy-4-(trifluoromethyl)piperidin-1-yl)phenyl)amino)-2H-benzo[b][1,4]oxazin-3(4H)-one] | 0.1 to 100
Cc1cc(N2CCC(C)CC2)cc(C)c1Nc1ccc2c(c1)n(C)c(=O)n2C [Compound 278, 5-((2,6-dimethyl-4-(4-methylpiperidin-1-yl)phenyl)amino)-1,3-dimethyl-1,3-dihydro-2H-benzo[d]imidazol-2-one] | 0.1 to 100
CNCCCN1C(=O)COc2cc(Nc3ccc(N4CC(C)OC(C)C4)c(C)c3)ccc21 (stereo not shown) [Compound 56, 7-((4-(2,6-dimethylmorpholino)-3-methylphenyl)amino)-4-(3-(methylamino)propyl)-2H-benzo[b][1,4]oxazin-3(4H)-one] | 0.1 to 100
NC(=O)CN1C(=O)COc2cc(Nc3ccc(N4CCC(C(F)(F)F)CC4)cc3)ccc21 [Compound 14, 2-(3-oxo-7-((4-(4-(trifluoromethyl)piperidin-1-yl)phenyl)amino)-2,3-dihydro-4H-benzo[b][1,4]oxazin-4-yl)acetamide] | 0.1 to 100
CC1CN(c2ccc(Nc3ccc4c(C(N)=O)cn(C)c4c3)cc2)CC(C)O1 (stereo not shown) [Compound 442, 6-((4-(2,6-dimethylmorpholino)phenyl)amino)-1-methyl-1H-indole-3-carboxamide] | 0.1 to 100
FC(F)(F)C1CCN(c2ccc(Nc3ccc4ccoc4c3)cc2)CC1 [Compound 351, N-(4-(4-(trifluoromethyl)piperidin-1-yl)phenyl)benzofuran-6-amine] | 0.1 to 100
Cn1c(=O)n(C)c2cc(Nc3ccc(N4CCCC4)cc3)ccc21 [Compound 271, 1,3-dimethyl-5-((4-(pyrrolidin-1-yl)phenyl)amino)-1,3-dihydro-2H-benzo[d]imidazol-2-one] | 0.1 to 100
CNCCN1C(=O)COc2cc(Nc3ccc(N4CC(C)OC(C)C4)cc3)ccc21 (stereo not shown) [Compound 53, 7-((4-(2,6-dimethylmorpholino)phenyl)amino)-4-(2-(methylamino)ethyl)-2H-benzo[b][1,4]oxazin-3(4H)-one] | 0.1 to 100
CC1CCC(C)N1c1ccc(Nc2ccc3c(c2)oc(=O)n3C)cc1 (stereo not shown) [Compound 325, 6-((4-(2,5-dimethylpyrrolidin-1-yl)phenyl)amino)-3-methylbenzo[d]oxazol-2(3H)-one] | 0.1 to 100
CN(C)c1cn(C)c2cccc(Nc3ccc(N4CCC(C(F)(F)F)CC4)cc3)c12 [Compound 399, N3,N3,1-trimethyl-N4-(4-(4-(trifluoromethyl)piperidin-1-yl)phenyl)-1H-indole-3,4-diamine] | 0.1 to 100
CC1CCN(c2ccc(Nc3ccc4c(c3)n(C)c(=N)n4C)cc2)CC1 [Compound 345, 2-imino-1,3-dimethyl-N-(4-(4-methylpiperidin-1-yl)phenyl)-2,3-dihydro-1H-benzo[d]imidazol-5-amine] | 0.1 to 100

Same assay, conditions: Homo sapiens; HT-1080 cells treated with RSL3; 3-fold, 10-point dilution, 1.1 μM highest concentration; Table 3; read-out: EC50 (nM), ferroptosis inhibitory activity

Compound | EC50 [nM]
Cc1cc(N2CCC(C(F)(F)F)CC2)ccc1Nc1cc2c(cc1C)N(C)C(=O)CO2 [Compound 477, 4,6-dimethyl-7-((2-methyl-4-(4-(trifluoromethyl)piperidin-1-yl)phenyl)amino)-2H-benzo[b][1,4]oxazin-3(4H)-one] | 0.1 to 100
COc1cc(N2CCC(C(F)(F)F)CC2)ccc1Nc1ccc2c(c1)OCC(=O)N2 [Compound 516, 7-((2-methoxy-4-(4-(trifluoromethyl)piperidin-1-yl)phenyl)amino)-2H-benzo[b][1,4]oxazin-3(4H)-one] | 0.1 to 100
Cc1cc(N2CCN(CC(F)(F)F)[C@@H](C)C2)ccc1Nc1ccc2c(c1)OCC(=O)N2 [Compound 580, (S)-7-((2-methyl-4-(3-methyl-4-(2,2,2-trifluoroethyl)piperazin-1-yl)phenyl)amino)-2H-benzo[b][1,4]oxazin-3(4H)-one] | 0.1 to 100
CC[C@@H]1CN(c2ccc(Nc3ccc4c(c3)OCC(=O)N4)c(C)n2)C[C@@H](C)O1 [Compound 471, 7-((6-((2R,6R)-2-ethyl-6-methylmorpholino)-2-methylpyridin-3-yl)amino)-2H-benzo[b][1,4]oxazin-3(4H)-one] | 0.1 to 100
Cc1cc(N2CCC(OC(F)(F)F)C2)ccc1Nc1ccc2c(c1)OCCC(=O)N2 (stereo not shown) [Compound 591, 8-((2-methyl-4-(3-(trifluoromethoxy)pyrrolidin-1-yl)phenyl)amino)-2,3-dihydrobenzo[b][1,4]oxazepin-4(5H)-one] | 0.1 to 100
CCC1CN(c2ccc(Nc3ccc4c(c3)ncn4C)c(C)n2)CCO1 (stereo not shown) [Compound 603, N-[6-(2-ethylmorpholin-4-yl)-2-methylpyridin-3-yl]-1-methyl-1,3-benzodiazol-5-amine] | 0.1 to 100
Cc1nc(N2C[C@@H](C)O[C@@H](C)C2)ccc1Nc1ccc2c(c1)ncn2C [Compound 605, N-(6-((2S,6R)-2,6-dimethylmorpholino)-2-methylpyridin-3-yl)-1-methyl-1H-benzo[d] imidazol-5-amine] | 0.1 to 100
Cc1cc(N2CCC(C(F)(F)F)CC2)ccc1Nc1cc(F)c2c(c1)OCC(=O)N2 [Compound 480, 5-fluoro-7-((2-methyl-4-(4-(trifluoromethyl)piperidin-1-yl)phenyl)amino)-2H-benzo[b][1,4]oxazin-3(4H)-one] | 0.1 to 100
Cc1cc(N2CCC(O)(C(F)(F)F)C2)ccc1Nc1ccc2c(c1)OCC(=O)N2 (stereo not shown) [Compound 617, 7-((4-(3-hydroxy-3-(trifluoromethyl)pyrrolidin-1-yl)-2-methylphenyl)amino)-2H-benzo[b][1,4]oxazin-3(4H)-one] | 0.1 to 100
